Measured values from patent EP4755881A1 (Wuhan Createrna Science and Technology Co., Ltd., priority 2023, dated 2025).

Target: hLPAR1 (human lysophosphatidic acid receptor 1, Accession No.: NM_001401.4) (Homo sapiens, UniProt Q92633)
Assay: cell-based
Conditions: LPAR1 inhibitory activity IC50, Table 1; FLIPR method, CHO-K1 cells overexpressing hLPAR1
Procedure: The antagonist properties of the compounds in the present disclosure were determined using the FLIPR (Fluorometric Imaging Plate Reader) method in CHO-K1 cells (Chinese Hamster Ovary cells K1, ATCC) overexpressing hLPAR1 (human lysophosphatidic acid receptor 1, Accession No.: NM_001401.4).
CHO-K1 cells stably expressing hLPAR1 were placed in a cell culture incubator at 37°C with 5% CO2 and cultured in F-12 medium containing 10% FBS (fetal bovine serum, Gibco, 10099-141), 1% penicillin-streptomycin (Gibco, 15140-122), and 0.4 mg/mL Hygromycin B (Gibco, 10687010). 18-24 hours before the FLIPR experiment, the cells were seeded into a 96-well plate at a density of 250,000 cells/mL (25,000 cells/well) and incubated overnight in the cell culture incubator. On the day of the experiment, the medium was removed, and the cells were washed with FLIPR buffer (2.5 mM probenecid (Thermo, P36400), 1.3 mM CaCl2, 3.3 mM Na2CO3, 1 mM MgSO4, 20 mM HEPES (Invitrogen, 15630080), 1× HBSS (Invitrogen, 14065056), 0.1% BSA (BioSharp, 70080030)). 75 µL of […] Fluo-4 AM fluorescent dye (Thermo, F14202) was added to each well and incubated for 1.0 hour at 37°C for dye loading. The 96-well plate was then washed once with buffer, and 50 µL of buffer containing the test compound or vehicle was added to each well, followed by incubation at room temperature for 30 min. The cell plate was then placed into the FLIPR for baseline fluorescence measurement (excitation wavelength at 485 nm, emission wavelength at 525 to 535 nm). Subsequently, 50 µL/well of agonist (final concentration 1 µM oleoyl-L-α-lysophosphatidic acid sodium salt (Sigma, L7260)) or vehicle (ultrapure water) was added, and fluorescence values were measured at 1-second intervals for 2 min. Finally, the output fluorescence counts were analyzed using GraphPad Prism 9.0 software log(inhibitor) vs. response--Variable slope (four parameters) equation to calculate IC50 values.
Table 1: Inhibitory activity data of compounds against LPAR1

hLPAR1 (human lysophosphatidic acid receptor 1, Accession No.: NM_001401.4), sequence (Q92633 whole entry): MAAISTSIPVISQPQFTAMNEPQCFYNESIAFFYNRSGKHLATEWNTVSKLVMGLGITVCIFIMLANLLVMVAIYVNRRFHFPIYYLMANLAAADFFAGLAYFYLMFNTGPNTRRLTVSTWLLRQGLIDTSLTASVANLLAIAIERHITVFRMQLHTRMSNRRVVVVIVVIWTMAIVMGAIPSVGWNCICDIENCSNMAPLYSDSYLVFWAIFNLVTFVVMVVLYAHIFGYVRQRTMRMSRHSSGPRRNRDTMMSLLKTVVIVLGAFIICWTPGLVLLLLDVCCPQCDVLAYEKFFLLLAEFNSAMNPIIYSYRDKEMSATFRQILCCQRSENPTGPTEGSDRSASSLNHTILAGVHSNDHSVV

SMILES | IC50 [nM]
Cc1nc(-c2nnn(C)c2NC(=O)O[C@H](C)CC(C)(F)F)ccc1C#C[C@@H]1CCC[C@H]1C(=O)O (single isomer, unassigned) [246-A] | 18.3
Cc1nc(-c2nnn(C)c2NC(=O)O[C@H](C)C23CC(C2)C3)ccc1C#CC1(CC(=O)O)CC1 [260-B] | 17.4

Same assay, conditions: Table 1; FLIPR method, CHO-K1 cells overexpressing hLPAR1; read-out: LPAR1 inhibitory activity IC50

SMILES | IC50 [nM]
Cc1nc(-c2nnn(C)c2NC(=O)O[C@H](C)c2ccccc2)ccc1C#C[C@@H]1CCCC[C@H]1C(=O)O (mixture of isomers) [027-A, trans-2-((2-methyl-6-(1-methyl-5-((((R)-1-phenylethoxy)carbonyl)amino)-1H-1,2,3-triazol-4-yl)pyridin-3-yl)ethynyl)cyclohexane-1-carboxylic acid] | 2.6
Cc1nc(-c2nnn(C)c2NC(=O)O[C@H](C)c2ccccc2)ccc1C#C[C@@H]1CCCC[C@H]1C(=O)O (mixture of isomers) [027-B, trans-2-((2-methyl-6-(1-methyl-5-((((R)-1-phenylethoxy)carbonyl)amino)-1H-1,2,3-triazol-4-yl)pyridin-3-yl)ethynyl)cyclohexane-1-carboxylic acid] | 49.2
Cc1nc(-c2nnn(C)c2NC(=O)O[C@H](C)c2ccccc2F)ccc1C#C[C@@H]1CCCC[C@H]1C(=O)O (mixture of isomers) [028-A, trans-2-((6-(5-((((R)-1-(2-fluorophenyl)ethoxy)carbonyl)amino)-1-methyl-1H-1,2,3-triazol-4-yl)-2-methylpyridin-3-yl)ethynyl)cyclohexane-1-carboxylic acid] | 17.6
Cc1nc(-c2nnn(C)c2NC(=O)O[C@H](C)c2ccccc2F)ccc1C#C[C@@H]1CCCC[C@H]1C(=O)O (mixture of isomers) [028-B, trans-2-((6-(5-((((R)-1-(2-fluorophenyl)ethoxy)carbonyl)amino)-1-methyl-1H-1,2,3-triazol-4-yl)-2-methylpyridin-3-yl)ethynyl)cyclohexane-1-carboxylic acid] | 60.4
Cc1nc(-c2nnn(C)c2NC(=O)O[C@H](C)c2ccccc2Cl)ccc1C#C[C@@H]1CCCC[C@H]1C(=O)O (mixture of isomers) [031-A, trans-2-((6-(5-((((R)-1-(2-chlorophenyl)ethoxy)carbonyl)amino)-1-methyl-1H-1,2,3-triazol-4-yl)-2-methylpyridin-3-yl)ethynyl)cyclohexane-1-carboxylic acid] | 0.6
Cc1nc(-c2nnn(C)c2NC(=O)O[C@H](C)c2ccccc2Cl)ccc1C#C[C@@H]1CCCC[C@H]1C(=O)O (mixture of isomers) [031-B, trans-2-((6-(5-((((R)-1-(2-chlorophenyl)ethoxy)carbonyl)amino)-1-methyl-1H-1,2,3-triazol-4-yl)-2-methylpyridin-3-yl)ethynyl)cyclohexane-1-carboxylic acid] | 0.2
CCC(F)(F)[C@@H](C)OC(=O)Nc1c(-c2ccc(C#C[C@@H]3CC[C@H]3C(=O)O)c(C)n2)nnn1C (mixture of isomers) [212-A, trans-2-((6-(5-(((((R)-3,3-difluoropentan-2-yl)oxy)carbonyl)amino)-1-methyl-1H-1,2,3-triazol-4-yl)-2-methylpyridin-3-yl)ethynyl)cyclobutane-1-carboxylic acid] | 42.1
Cc1nc(-c2nnn(C)c2NC(=O)O[C@H](C)CC(C)(F)F)ccc1C#C[C@@H]1CC[C@H]1C(=O)O (mixture of isomers) [213-A, trans-2-((6-(5-(((((R)-4,4-difluoropentan-2-yl)oxy)carbonyl)amino)-1-methyl-1H-1,2,3-triazol-4-yl)-2-methylpyridin-3-yl)ethynyl)cyclobutane-1-carboxylic acid] | 48.2
CCC(F)(F)[C@@H](C)OC(=O)Nc1c(-c2ccc(C#C[C@@H]3CCC[C@H]3C(=O)O)c(C)n2)nnn1C (mixture of isomers) [219-A, trans-2-((6-(5-(((((R)-3,3-difluoropentan-2-yl)oxy)carbonyl)amino)-1-methyl-1H-1,2,3-triazol-4-yl)-2-methylpyridin-3-yl)ethynyl)cyclopentane-1-carboxylic acid] | 3.3
Cc1nc(-c2nnn(C)c2NC(=O)O[C@H](C)CC(C)(C)F)ccc1C#C[C@@H]1CCC[C@H]1C(=O)O (mixture of isomers) [244-A, trans-2-((6-(5-(((((R)-4-fluoro-4-methylpentan-2-yl)oxy)carbonyl)amino)-1-methyl-1H-1,2,3-triazol-4-yl)-2-methylpyridin-3-yl)ethynyl)cyclopentane-1-carboxylic acid] | 19.8
Cc1nc(-c2nnn(C)c2NC(=O)O[C@H](C)CC2CC2)ccc1C#C[C@@H]1CC(F)(F)C[C@H]1C(=O)O (mixture of isomers) [compound 205, trans-2-((6-(5-(((((R)-1-cyclopropylpropan-2-yl)oxy)carbonyl)amino)-1-methyl-1H-1,2,3-triazol-4-yl)-2-methylpyridin-3-yl)ethynyl)-4,4-difluorocyclopentane-1-carboxylic acid] | 3.1
CCCCN(C)C(=O)OCc1c(-c2ccc(C#C[C@@H]3CC(F)(F)C[C@H]3C(=O)O)c(C)n2)nnn1C (racemic) [compound 252] | 30.2
Cc1nc(-c2nnn(C)c2COC(=O)N(C)CC2CCC2)ccc1C#CC1CC(F)(F)CC1C(=O)O (racemic) [compound 362] | 20.4
Cc1nc(-c2nnn(C)c2NC(=O)OC(C)CC2CC2)ccc1C#CC1CCC1C(=O)O (single isomer, unassigned) [248-B] | 19.1
Cc1nc(-c2nnn(C)c2NC(=O)OC(C)CC(C)(C)F)ccc1C#CC1CCC1C(=O)O (single isomer, unassigned) [306-A] | 50.6
Cc1nc(-c2nnn(C)c2NC(=O)OC(C)CC(C)(C)F)ccc1C#CC1CCC1C(=O)O (single isomer, unassigned) [306-B] | 53.6
CCC[C@@H](C)OC(=O)Nc1c(-c2ccc(C#CC3(CC(=O)O)CC3)c(C)n2)nnn1C [010-A] | 45.9
Cc1nc(-c2nnn(C)c2NC(=O)OC(C)C2CCC2)ccc1C#CC1(CC(=O)O)CC1 (stereo not shown) [032-A, 2-(1-((6-(5-(((1-cyclobutylethoxy)carbonyl)amino)-1-methyl-1H-1,2,3-triazol-4-yl)-2-methylpyridin-3-yl)ethynyl)cyclopropyl)acetic acid] | 0.6
Cc1nc(-c2nnn(C)c2NC(=O)OC(C)C2CCCC2)ccc1C#CC1(CC(=O)O)CC1 (stereo not shown) [092', 2-(1-((6-(5-(((1-cyclopentylethoxy)carbonyl)amino)-1-methyl-1H-1,2,3-triazol-4-yl)-2-methylpyridin-3-yl)ethynyl)cyclopropyl)acetic acid] | 18.7
CCC(F)(F)[C@@H](C)OC(=O)Nc1c(-c2ccc(C#CC3(CC(=O)O)CC3)c(C)n2)nnn1C [207', (R)-2-(1-((6-(5-((((3,3-difluoropentan-2-yl)oxy)carbonyl)amino)-1-methyl-1H-1,2,3-triazol-4-yl)-2-methylpyridin-3-yl)ethynyl)cyclopropyl)acetic acid] | 20.2
Cc1nc(-c2nnn(C)c2NC(=O)OC(C)C2CCC2)ccc1C#CC1CC(F)(F)CC1C(=O)O (stereo not shown) [242-A] | 7
CCCCN(C)C(=O)OCc1c(-c2ccc(C#CC3(CC(=O)O)CC3)c(C)n2)nnn1C [compound 004, 2-(1-((6-(5-(((butyl(methyl)carbamoyl)oxy)methyl)-1-methyl-1H-1,2,3-triazol-4-yl)-2-methylpyridin-3-yl)ethynyl)cyclopropyl)acetic acid] | 66.3
Cc1nc(-c2cnn(C)c2NC(=O)O[C@H](C)c2ccccc2Cl)ccc1C#CC1(CC(=O)O)CC1 [compound 005, (R)-2-(1-((6-(5-(((1-(2-chlorophenyl)ethoxy)carbonyl)amino)-1-methyl-1H-pyrazol-4-yl)-2-methylpyridin-3-yl)ethynyl)cyclopropyl)acetic acid] | 22.6
Cc1nc(-n2nnc(C)c2NC(=O)O[C@H](C)c2ccccc2Cl)ccc1C#CC1(CC(=O)O)CC1 [compound 006, (R)-2-(1-((6-(5-(((1-(2-chlorophenyl)ethoxy)carbonyl)amino)-4-methyl-1H-1,2,3-triazol-1-yl)-2-methylpyridin-3-yl)ethynyl)cyclopropyl)acetic acid] | 42
CCCC(C)OC(=O)Nc1c(-c2ccc(C#CC3(CC(=O)O)CC3)c(C)n2)nnn1C (stereo not shown) [compound 010, 2-(1-((2-methyl-6-(1-methyl-5-(((pentan-2-yloxy)carbonyl)amino)-1H-1,2,3-triazol-4-yl)pyridin-3-yl)ethynyl)cyclopropyl)acetic acid] | 56.2

Same assay, conditions: read-out: LPAR1 inhibitory activity IC50; Table 1; FLIPR method, CHO-K1 cells overexpressing hLPAR1

SMILES | IC50 [nM]
Cc1nc(-c2nnn(C)c2NC(=O)OC(C)CCCF)ccc1C#CC1(CC(=O)O)CC1 (racemic) [compound 280] | 75.7
